Measured values reported in paper PMC6274106, “Evaluation and Comparison of the Inhibition Effect of Astragaloside IV and Aglycone Cycloastragenol on Various UDP-Glucuronosyltransferase (UGT) Isoforms” (Molecules, 2016).

Experiments:
Format in all cases: biochemical
[1] = target: T1, UGT2B7 (Homo sapiens, UniProt P16662); test: 4-MU glucuronidation screen, […] inhibition at […]
T1 construct: recombinant human UGT supersomes (baculovirus-infected insect cells)
T1 sequence (P16662 24-529): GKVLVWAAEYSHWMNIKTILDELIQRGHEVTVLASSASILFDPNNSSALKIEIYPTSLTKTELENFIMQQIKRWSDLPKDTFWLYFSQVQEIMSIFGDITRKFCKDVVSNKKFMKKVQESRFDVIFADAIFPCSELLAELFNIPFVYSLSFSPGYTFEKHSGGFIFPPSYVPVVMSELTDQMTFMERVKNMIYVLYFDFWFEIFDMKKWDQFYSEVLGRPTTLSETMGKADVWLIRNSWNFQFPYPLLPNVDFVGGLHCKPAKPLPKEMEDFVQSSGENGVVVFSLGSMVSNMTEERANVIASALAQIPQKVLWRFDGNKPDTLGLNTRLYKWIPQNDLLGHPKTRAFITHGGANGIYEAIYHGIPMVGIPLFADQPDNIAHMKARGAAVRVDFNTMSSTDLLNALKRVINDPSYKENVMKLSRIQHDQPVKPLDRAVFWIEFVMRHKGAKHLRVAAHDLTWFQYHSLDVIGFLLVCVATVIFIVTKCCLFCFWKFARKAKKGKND

[2] = target: T2, UGT1A1 (Homo sapiens, UniProt P22309); test: 4-MU glucuronidation screen, […] inhibition at […]
T2 construct: recombinant human UGT supersomes (baculovirus-infected insect cells)
T2 sequence (P22309 26-533): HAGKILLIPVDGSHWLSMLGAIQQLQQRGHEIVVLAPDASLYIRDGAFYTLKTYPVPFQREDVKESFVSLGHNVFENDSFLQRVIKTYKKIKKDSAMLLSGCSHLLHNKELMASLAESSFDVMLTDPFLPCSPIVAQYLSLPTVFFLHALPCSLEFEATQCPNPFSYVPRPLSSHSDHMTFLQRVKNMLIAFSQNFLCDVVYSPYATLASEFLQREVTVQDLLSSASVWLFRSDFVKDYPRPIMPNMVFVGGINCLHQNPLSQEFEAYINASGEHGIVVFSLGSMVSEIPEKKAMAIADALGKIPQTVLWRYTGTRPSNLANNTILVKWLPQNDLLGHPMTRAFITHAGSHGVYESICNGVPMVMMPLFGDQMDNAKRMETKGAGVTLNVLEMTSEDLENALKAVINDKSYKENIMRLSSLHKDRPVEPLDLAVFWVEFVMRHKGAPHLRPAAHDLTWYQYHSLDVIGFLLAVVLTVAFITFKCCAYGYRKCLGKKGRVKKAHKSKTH

[3] = target: T3, UGT1A8 (Homo sapiens, UniProt Q9HAW9); test: 4-MU glucuronidation by recombinant UGT supersomes, UPLC-UV; Dixon and Lineweaver-Burk plots (IC50 […])
T3 construct: recombinant human UGT supersomes (baculovirus-infected insect cells)
T3 sequence (Q9HAW9 26-530): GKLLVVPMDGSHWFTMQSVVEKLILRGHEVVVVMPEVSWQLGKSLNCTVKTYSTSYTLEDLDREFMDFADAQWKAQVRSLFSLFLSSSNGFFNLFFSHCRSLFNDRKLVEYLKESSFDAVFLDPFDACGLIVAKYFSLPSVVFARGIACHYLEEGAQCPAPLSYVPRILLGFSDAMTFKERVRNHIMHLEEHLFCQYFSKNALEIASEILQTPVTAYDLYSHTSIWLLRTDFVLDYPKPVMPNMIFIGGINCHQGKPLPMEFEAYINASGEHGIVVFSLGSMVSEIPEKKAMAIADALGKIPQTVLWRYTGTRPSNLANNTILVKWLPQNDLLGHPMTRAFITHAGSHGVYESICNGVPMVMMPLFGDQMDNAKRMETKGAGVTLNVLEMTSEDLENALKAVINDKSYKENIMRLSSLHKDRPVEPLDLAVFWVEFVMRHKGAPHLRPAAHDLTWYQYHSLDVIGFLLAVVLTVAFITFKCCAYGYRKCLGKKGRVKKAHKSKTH

[4] = target: T4, UGT1A3 (Homo sapiens, UniProt P35503); test: 4-MU glucuronidation screen, […] inhibition at […]
T4 construct: recombinant human UGT supersomes (baculovirus-infected insect cells)
T4 sequence (P35503 29-534): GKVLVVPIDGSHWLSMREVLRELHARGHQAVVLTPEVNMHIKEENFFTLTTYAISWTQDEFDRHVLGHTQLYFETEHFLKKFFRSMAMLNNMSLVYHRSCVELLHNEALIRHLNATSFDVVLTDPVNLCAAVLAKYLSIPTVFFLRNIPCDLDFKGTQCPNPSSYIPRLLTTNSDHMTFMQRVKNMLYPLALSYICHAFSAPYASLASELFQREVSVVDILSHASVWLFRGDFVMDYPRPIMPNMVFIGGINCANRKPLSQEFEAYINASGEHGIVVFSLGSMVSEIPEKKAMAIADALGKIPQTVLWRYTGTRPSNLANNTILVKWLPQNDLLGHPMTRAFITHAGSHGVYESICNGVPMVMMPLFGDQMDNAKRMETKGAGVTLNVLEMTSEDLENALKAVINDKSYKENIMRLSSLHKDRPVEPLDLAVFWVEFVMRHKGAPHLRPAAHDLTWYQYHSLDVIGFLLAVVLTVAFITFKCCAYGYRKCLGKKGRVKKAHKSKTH

[5] = target: T1, UGT2B7; test: 4-MU glucuronidation by recombinant UGT supersomes, UPLC-UV; Dixon and Lineweaver-Burk plots (IC50 […])

Structure (SMILES)	inhibition at 100 µM [1]	inhibition at 100 µM [2]	Ki [3]	inhibition at 100 µM [4]	Ki [5]
CC(C)(O)[C@@H]1CC[C@](C)([C@H]2[C@@H](O)C[C@@]3(C)[C@@H]4C[C@H](O[C@@H]5O[C@H](CO)[C@@H](O)[C@H](O)[C@H]5O)[C@H]5C(C)(C)[C@@H](O[C@@H]6OC[C@@H](O)[C@H](O)[C@H]6O)CC[C@@]56C[C@@]46CC[C@]23C)O1 [AST, astragaloside IV]	51.5%	–	–	–	–
CC(C)(O)[C@@H]1CC[C@](C)([C@H]2[C@@H](O)C[C@@]3(C)[C@@H]4C[C@H](O)[C@H]5C(C)(C)[C@@H](O)CC[C@@]56C[C@@]46CC[C@]23C)O1 [CAG, cycloastragenol]	–	50.2%	0.034 µM	75.2%	21 µM
